Earlier results, collected in patent US5401490A, “Markers of tissue hypoxia” (priority 1989, dated 1995).

Columns and labels:
[1] = system: hypoxic cell; settings: in vitro; cited from earlier work
[2] = system: hypoxic cell; settings: in vitro; cited from earlier work; remark: listed apart in the source
[3] = cited from earlier work
[4] = system: EMT-6 cells; settings: 50 μM comparison, previously determined value; cited from earlier work
[5] = system: EMT-6 murine tumor cells; settings: hypoxic in vitro; cited from earlier work
[6] = system: V-79 hamster cells; settings: hypoxic in vitro; cited from earlier work
[7] = system: EMT-6 tumors; settings: BALB/C mice; cited from earlier work

| SMILES | rates of binding compared with MISO [1] | hypoxic cell toxicity compared with MISO [2] | metabolic deiodination in vivo [3] | sensitizer enhancement ratio (SER) [4] | binding to the macromolecular fraction [5] | binding to the macromolecular fraction [6] | binding to EMT-6 tumors in vivo [7] |
| --- | --- | --- | --- | --- | --- | --- | --- |
| O=[N+]([O-])c1nccn1C1OC(CI)C(O)C1O (centres unmarked) [IAZR, (1-5'-iodo-5'deoxyribofuranosyl)-2-nitroimidazole] | rates of binding than MISO | greater hypoxic cell toxicity | subject to metabolic deiodination | 1.6 |  |  |  |
| COCC(O)Cn1ccnc1[N+](=O)[O-] (centres unmarked) [MISO, misonidazole] |  |  |  | 1.2 | selectively bound to the macromolecular fraction | selectively bound to the macromolecular fraction | selectively bound |
